Test results: patent US20230037414A1, “INHIBITORS OF ADRENOMEDULLIN FOR THE TREATMENT OF ACUTE MYELOID LEUKEMIA BY ERADICATING LEUKEMIC STEM CELLS” (INSERM (INSTITUT NATIONAL DE LA SANTÉ ET DE LA RECHERCHE …, priority 2019, published 2023)

Key:
primary AML samples = test: PDX model of AraC treatment in AML (NSG mice); type: in vivo
Description: NSG mice were produced at the Genotoul Anexplo platform at Toulouse (France) using breeders obtained from Charles River Laboratories. Transplanted mice were treated with antibiotic (Baytril) for the duration of the experiment. For experiments assessing the response to chemotherapy in PDX models, mice (6-9 weeks old) were sublethally treated with busulfan (30 mg/kg) 24 hours before injection of leukemic cells. Leukemia samples were thawed in 37° C. water bath, washed in IMDM 20% FBS, and suspended in Hank's Balanced Salt Solution at a final concentration of 1-10×10^6 cells per 200 μL for tail vein injection in NSG mice. Eight to 18 weeks after AML cell transplantation and when mice were engrafted (tested by flow cytometry on peripheral blood or bone marrow aspirates), NSG mice were treated by daily intraperitoneal injection of 60 mg/kg AraC or vehicle (PBS) for 5 days. AraC was kindly provided by the pharmacy of the TUH. Mice were sacrificed at day 8 to harvest human leukemic cells from murine bone marrow. For AML cell lines, 24 hours before injection of leukemic cells mice were treated with busulfan (20 mg/kg). Then cells were thawed and washed as previously described, suspended in HBSS at a final concentration of 2×106 per 200 μL before injection into bloodstream of NSG mice. […] Daily monitoring of mice for symptoms of disease (ruffled coat, hunched back, weakness, and reduced mobility) determined the time of killing for injected animals with signs of distress.
At the end of experiment, NSG mice were humanely killed in accordance with European ethics protocols. […] The number of AML cells/μL peripheral blood and number of AML cells in total cell tumor burden (in bone marrow and spleen) were determined by using CountBright beads (Invitrogen) using described protocol.
Proteins were resolved using 4% to 12% polyacrylamide gel electrophoresis Bis-Tris gels (Life Technology, Carlsbad, Calif.) and electrotransferred to nitrocellulose membranes. […] Quantification of chemiluminescent signals was done with the GeneTools software from Syngene.

MOLM-14 cells = test: EC50 experiments (MTS cell viability) on MOLM-14 cells FACS-sorted from xenografted mice; type: cell-based; details: Homo sapiens, MOLM-14, 168 h, after one week of in vitro culture
Description: The day before experiment, cells were adjusted to 3×10^5 cells/ml final concentration and plated in a 96-well plate (final volume: […]). To measure half-maximal inhibitory concentration (EC50), increased concentrations of AraC or idarubicin were added to the medium. After two days, 20 µl per well of MTS solution (Promega) was added for two hours and then absorbance was recorded at 490 nm with a 96-well plate reader. The doses that decrease cell viability to 50% (EC50) were analyzed Nonlinear regression log [inhibitor] vs. normalized response-variable slope with GraphPad Prism software.

[1] = MOLM-14 shCTR cells from AraC treated mice
[2] = MOLM-14 shCTR cells from vehicle-treated mice

SMILES | percentage of human cells in the bone marrow of mice (primary AML samples; AraC vs PBS treated mice) | levels of secreted ADM in the bone marrow of mice (primary AML samples; bone marrow supernatant, western blot, AraC vs PBS) | percentage of positive blasts for CALCRL (primary AML samples; minimal residual disease after 60 mg/kg/day AraC for 5 days, day 8, 5.6% without AraC) [%] | EC50 (MOLM-14 cells; [1]) [µM] | EC50 (MOLM-14 cells; [2]) [µM]
Nc1ccn([C@@H]2O[C@H](CO)[C@@H](O)[C@@H]2O)c(=O)n1 [AraC, cytarabine] | reduced | reduced | 23 | 7 | 2
CC(=O)[C@]1(O)Cc2c(O)c3c(c(O)c2[C@@H](O[C@H]2C[C@H](N)[C@H](O)[C@H](C)O2)C1)C(=O)c1ccccc1C3=O [idarubicin] | – | – | – | 0.061 | 0.029
